Source: US20110301116A1, “NSAIDS-INDUCED GASTROINTESTINAL MUCOSAL DISORDER ALLEVIATOR AND MANUFACTURING METHOD THEREOF” (THE UNIVERSITY OF TOKYO, priority 2008, published 2011)

Assays:
[1] = tested on: stomach ulcer model induced by NSAIDs; test: Stomach ulcer induced by NSAIDs in rats, lyophilized NSAID and trehalose vs NSAID alone (Working Example 1); format: in vivo, rat; conditions: trehalose 800 mg/kg, oral, 5 hours, average±standard deviation
Experimental: Each of the test substances were adjusted by suspending or dissolving them into 0.5% CMC.Na solution. Each of 9 mL of Liquid doses was given per 1 kg weight by oral dose. 0.5% CMC.Na solutions were given to control group.
(§1) We bought Winster male rats (Japan SLC) that were 8 weeks old. We breed these rats keeping 20 to 26 degrees C., humidity of 30 to 70%, housing 2 to 3 rats in a rat breeding gage (mouse and rat breeding CE-2), giving enough amount of filtered tap water. After breeding 7 days, 5 to 10 rats per group were picked to execute the example. The rats were fasting for 24 hours without giving no food and then the rats were fed no food and no water for 1 hour just before the examination.
From 11 am on the previous day of the examination date, the rats were kept fasting and test substances were fed though mouse. After 5 hours passed, these rats were killed by carbon dioxide gas and stomachs were picked up. The duodenums were tagged. 6 mL of neutral formalin was poured from the esophagi so as to fix the stomachs for 30 minutes. The stomachs were cut along with the greater curvature. The cut stomachs were gently washed by saline, the presence of blood spot were observed by a stereoscopic microscope. The area of blood spots was measured by 0.5 mm×0.5 mm unit as an index of ulcer and the sum of each animal was calculated. The rate of suppressed ulcer was calculated, using the ulcer index for the group in which each of test sample was given and the group in which trehalose was also given, in accordance with the following equation.
(§2) Rate of suppressed ulcer(%)=[1−A/B]×100 • […]

[2] = tested on: gastric mucosal disorder (ulcer) induced by NSAIDs; test: Gastric mucosal disorder in rats: NSAID alone, mixture with trehalose, lyophilized with trehalose (Working Example 2); format: in vivo; conditions: rat, oral, 5 hours, trehalose 800 mg/kg
Experimental: The liquid doses were prepared on the date when the examination was executed. Weighted NSAIDs were suspended or dissolved into 0.5% CMC.Na solution to prepare doses of administrating NSAIDs only. Suspension of NSAIDs and solution of trehalose were prepared. […] For each groups the amount of dose was 8 mL per kg or rat.
as §1
From 11 am on the previous day of the examination date, the rats were kept fasting and test substances were fed though mouse. After 5 hours passed, these rats were killed by carbon dioxide gas and stomachs were picked up. The duodenums were tagged. 6 mL of neutral formalin were poured from the esophagi so as to fix the stomachs for 30 minutes. The stomachs were cut along with the greater curvature. The cut stomachs were gently washed by saline, the presence of blood spot were observed by a stereoscopic microscope.
The area of blood spots was measured by 0.5 mm×0.5 mm unit as an index of ulcer and the sum of each animals was calculated. The rate of suppressed ulcer was calculated, using the ulcer index for the group in which each of test samples were given and the group in which trehalose was also given, in accordance with the following equation.
as §2

Compound: CC(=O)Oc1ccccc1C(=O)O [Aspirin alone, aspirin]
- ulcer (area of blood spots, ulcer index) ([1]; stomach ulcer model induced by aspirin, aspirin 200 mg/kg): 10.40±2.80 mm^2
- Ulcer index (mm^2, average ± standard deviation) ([2]; aspirin 200 mg/kg): 10.40 ± 2.73 mm^2
- Ulcer index (mm^2, average ± standard deviation) ([2]; aspirin 200 mg/kg, listed as aspirin alone): 10.40±2.73 mm^2

Compound: O=C(O)Cc1ccccc1Nc1c(Cl)cccc1Cl [Diclofenac alone, sodium diclofenac]
- ulcer (area of blood spots, ulcer index) ([1]; stomach ulcer model induced by diclofenac, diclofenac 40 mg/kg): 4.30±0.71 mm^2
- Ulcer index (mm^2, average ± standard deviation) ([2]; diclofenac 40 mg/kg): 4.30 ± 0.71 mm^2
- Ulcer index (mm^2, average ± standard deviation) ([2]; diclofenac 40 mg/kg, listed as diclofenac alone): 4.30±0.71 mm^2

Compound: COc1ccc2c(c1)c(CC(=O)O)c(C)n2C(=O)c1ccc(Cl)cc1 [Indomethacin alone, indomethacin]
- ulcer (area of blood spots, ulcer index) ([1]; stomach ulcer model induced by indomethacin, indomethacin 30 mg/kg): 4.83±0.90 mm^2
- Ulcer index (mm^2, average ± standard deviation) ([2]; indomethacin 30 mg/kg): 4.83 ± 0.90 mm^2
- Ulcer index (mm^2, average ± standard deviation) ([2]; indomethacin 30 mg/kg, listed as indomethacin alone): 4.83±0.90 mm^2

Compound: CC(C)Cc1ccc(C(C)C(=O)O)cc1 (stereo not shown) [ibuprofen alone, ibuprofen]
- ulcer (area of blood spots, ulcer index) ([1]; stomach ulcer model induced by ibuprofen, ibuprofen 400 mg/kg): 5.35±1.86 mm^2
